“Also recorded” adds a separate entry of the source.
How the values were obtained:
[1] = system: HIV-1; experiment: HIV-1 based LUCIA, all other cell lines tested; conditions: Human immunodeficiency virus 1
Text: Retroviral Transductions (LUCIA).

[2] = system: HIV-1 HXB2 AZT resistant; experiment: microbe, parasite or virus in culture; type: cell-based
Description: (§1) HIV-1 4-day Replication Assays
(§2) C8166 T-cells were washed and infected with HIV-1 (strains HXB2wt and HXB2AZTres, RT amino acid changes 67N, 70R, 215F, 219Q) at low multiplicity of infection for one hour at room temperature. The cells were then washed and distributed (5×10^4 cells/well) in triplicate into the wells of 96-well cell culture plates containing different concentrations of inhibitors. The plates were then incubated at 37° C. for 4 days. The cell-free culture fluid was then harvested and assayed for levels of p24 viral antigen using a commercially available ELISA kit (Murex), according to the manufacturers' instructions. Cytotoxicity was evaluated by distributing (5×10^4 cells/well) uninfected C8166 T-cells into triplicate wells of 96-well cell culture plates containing different concentrations of inhibitor and incubating the plates at 37° C. After 4 days, 25 μl of XTT, which is metabolised by viable but not dead cells was added and the plates incubated for a further 3 hours at 37° C. Finally, the absorbance was read at a wavelength of 450 nm.

[3] = system: C8166 T-cells; experiment: Cytotoxicity on uninfected C8166 T-cells (XTT dye reduction); type: cell-based; conditions: 4 days, XTT, FIG. 8C
Description: as §2

[4] = as above; type: cell-based; conditions: human, uninfected C8166 T-cells, read-out: 50% cytotoxic concentration (CC50)
Description: as §2

[5] = system: HeLa cells; experiment: Clonogenic survival assay, sensitisation to ionising radiation; type: cell-based, human
Description: (§3) Sensitisation of Cells to Ionising Radiation or DNA Double Strand Break Chemotherapies
(§4) The HeLa line was used for ionising radiation studies while LoVo was used for studies with chemotherapeutic agents. […] After 1 hour, a concentration range of either etoposide (FIG. 2), camptothecin (FIG. 3) or doxorubicin (FIG. 4) was added. […] For all treatments, after a further 16 hours incubation, drug containing media was removed and fresh media added prior to a further incubation of 10 days before the staining of colonies with Giemsa. All compounds were solubilised in DMSO, with a final concentration on cells of no more than 0.1%. Resulting colonies containing >50 cells were counted as positives.

[6] = system: LoVo cells; experiment: Clonogenic survival assay, sensitisation to DNA double strand break chemotherapeutics; type: cell-based, human; conditions: 10 μM of compound
Description: as §3, §4

[7] = system: HIV-1; experiment: HIV-1 based luciferase assay (LUCIA) on Jurkat T-cells; type: cell-based; conditions: FIG. 5
[8] = biological target: T1, HIV-1 RT (Human immunodeficiency virus type 1 group M subtype B, UniProt P04585); experiment: Chemilluminescent HIV-1 reverse transcriptase assay; type: biochemical; conditions: FIG. 6
T1 construct: chemilluminescent HIV-1 reverse transcriptase assays
Text: Control RT inhibition using nevirapine (□) is also shown.

[9] = system: HIV-1 HXB2 wild type; experiment: HIV-1 4-day replication assay, wild type strain (p24 antigen ELISA); type: cell-based
Description: as §1, §2

SMILES: O=c1cc(-c2cccc3c2Sc2ccccc2S3)oc(N2CCOCC2)c1 [Compound 4, 2-Thianthren-1-yl-6-morpholin-4-yl-pyran-4-one]
- IC50 [1]: 1 to 10 µM
- inhibition of HIV-1 replication, wild-type versus AZT resistant strain ([2]; 4-day replication assays, FIG. 8A, 8B): inhibits HIV-1 replication equally well in both wild-type and AZT resistant HIV-1 strains; also recorded: inhibited HIV-1 replication equally well
- IC50 ([2]; Human immunodeficiency virus 1, HXB2, C8166, 96 h, read-out: HIV-1 HXB2 (IC50 μM) AZT resistant): 0.06 µM
- cytotoxicity (percentage of viable cells) [3]: No significant cytotoxicity; also recorded: no significant cytotoxic effects
- CC50 at 4 days [4]: > 20 µM
- sensitisation of cells to ionising radiation (% survival) ([5]; HeLa cells, compound at 0.5 μM and 2 μM, FIG. 1): can sensitise cells to ionising radiation
- sensitising tumour derived cell lines to DNA double strand break inducing agents ([5]; summary of FIGS. 1–4 (HeLa and LoVo)): significant effect on sensitising tumour derived cell lines to DNA double strand break inducing agents
- sensitisation of cells to etoposide (% survival) ([6]; FIG. 2): can sensitise cells to etopside
- sensitisation of cells to camptothecin (% survival) ([6]; FIG. 3): can sensitise cells to camptothecin
- sensitisation of cells to doxorubicin (% survival) ([6]; FIG. 4): can sensitise cells to doxorubicin
- IC50 ([7]; Human immunodeficiency virus 1, Jurkat, read-out: IC50 in HIV-1 based LUCIA, Jurkat T-cells): ~1 µM
- inhibition of retroviral vector transduction (LUCIA) ([7]; Jurkat T-cells): can inhibit recombinant retroviral vector infections; also recorded: efficiently inhibit HIV-1 LUCIA at low micromolar concentrations
- inhibition of HIV-1 RT [8]: does not inhibit HIV-1 RT
- inhibition of HIV-1 replication ([9]; 4-day replication assays, FIG. 8): inhibits HIV-1 replication
- IC50 ([9]; Human immunodeficiency virus 1, HXB2, 96 h, C8166 T-cells, 4-day replication, p24): 0.1 µM
